In US12043599B2, “Herbicidal compounds” (SYNGENTA PARTICIPATIONS AG, priority 2018, dated 2024):

Tests used:
Assay type in all cases: in vivo
Conditions in all cases: 250 g/h, evaluated after 13 days
Setaria faberi (SETFA) [1] = test: Post-emergence herbicidal glasshouse test, percentage damage
In short: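 Percentage damage was scored 13 days after treatment on a five-point scale (1=0-19% to 5=80-100%). Treatments were post-emergence sprays on 8-day-old wheat, barley and SETFA plants in a glasshouse (24/16 °C day/night, 14 h light, 65% humidity), using acetone/water 50:50 with 0.5% Tween 20 at the stated rates. Wheat additionally received cloquintocet-mexyl safener at 50 g/ha.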

[2] = tested on: Alopecurus myosuroides (ALOMY); test: Pre-emergence herbicidal glasshouse test, percentage damage
In short: (§1)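 Herbicidal effect was scored 13 days after a 250 g/h spray, using bands of 0-19% (1) through 80-100% (5). Sowing preceded spraying by 1 day for pre-emergence and 8 days for post-emergence. The glasshouse ran at 24/16 °C with 14 h light.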

Lolium perenne (LOLPE) [3] = test: as above
In short: as §1

Avena fatua (AVEFA) [4] = test: as above
In short: as §1

[5] = tested on: Echinochloa crus-galli (ECHCG); test: as above
In short: as §1

Setaria faberi (SETFA) [6] = test: as above
In short: as §1

[7] = tested on: Alopecurus myosuroides (ALOMY); test: Post-emergence herbicidal glasshouse test, percentage damage
In short: as §1

Lolium perenne (LOLPE) [8] = test: as above
In short: as §1

Avena fatua (AVEFA) [9] = test: as above
In short: as §1

[10] = tested on: Echinochloa crus-galli (ECHCG); test: as above
In short: as §1

Compound	SETFA POST percentage damage (five point scale) (Setaria faberi (SETFA) [1])	ALOMY PRE percentage damage (five point scale) [2]	LOLPE PRE percentage damage (five point scale) (Lolium perenne (LOLPE) [3])	AVEFA PRE percentage damage (five point scale) (Avena fatua (AVEFA) [4])	ECHCG PRE percentage damage (five point scale) [5]	SETFA PRE percentage damage (five point scale) (Setaria faberi (SETFA) [6])	ALOMY POST percentage damage (five point scale) [7]	LOLPE POST percentage damage (five point scale) (Lolium perenne (LOLPE) [8])	AVEFA POST percentage damage (five point scale) (Avena fatua (AVEFA) [9])	ECHCG POST percentage damage (five point scale) [10]
CC#Cc1cc(C)c(C2=C(OC(=O)OC)CC3(CCN(C(=O)OC(C)(C)C)CC3)CC2=O)c(C)c1 [Compound P21]	5 (5=80-100%)	5 (5=80-100%)	5 (5=80-100%)	4 (4=60-79%)	5 (5=80-100%)	5 (5=80-100%)	5 (5=80-100%)	5 (5=80-100%)	5 (5=80-100%)	5 (5=80-100%)
CC#Cc1cc(C)c(C2C(=O)CC3(CCN(C(=O)NC(=O)c4ccc(Cl)cn4)CC3)CC2=O)c(C)c1 [Compound A162]	5 (5=80-100%)	5 (5=80-100%)	5 (5=80-100%)	5 (5=80-100%)	5 (5=80-100%)	5 (5=80-100%)	5 (5=80-100%)	5 (5=80-100%)	5 (5=80-100%)	5 (5=80-100%)
CC#Cc1cc(C)c(C2C(=O)CC3(CCN(C(=O)CCOCC)CC3)CC2=O)c(C)c1 [Compound A172]	5 (5=80-100%)	5 (5=80-100%)	5 (5=80-100%)	5 (5=80-100%)	5 (5=80-100%)	5 (5=80-100%)	5 (5=80-100%)	5 (5=80-100%)	5 (5=80-100%)	5 (5=80-100%)
CC#Cc1cc(C)c(C2C(=O)CC3(CCN(C(=O)Cc4ccncn4)CC3)CC2=O)c(C)c1 [Compound A101]	5 (5=80-100%)	4 (4=60-79%)	5 (5=80-100%)	4 (4=60-79%)	5 (5=80-100%)	5 (5=80-100%)	5 (5=80-100%)	5 (5=80-100%)	5 (5=80-100%)	5 (5=80-100%)
CC#Cc1cc(C)c(C2=C(OC(=O)OC)CC3(CCN(C(=O)NOC)CC3)CC2=O)c(C)c1 [Compound P14]	5 (5=80-100%)	5 (5=80-100%)	5 (5=80-100%)	5 (5=80-100%)	5 (5=80-100%)	5 (5=80-100%)	5 (5=80-100%)	5 (5=80-100%)	5 (5=80-100%)	5 (5=80-100%)
CC#Cc1cc(C)c(C2C(=O)CC3(CCN(C(=O)CC4OCCO4)CC3)CC2=O)c(C)c1 [Compound A151]	5 (5=80-100%)	5 (5=80-100%)	5 (5=80-100%)	5 (5=80-100%)	5 (5=80-100%)	5 (5=80-100%)	5 (5=80-100%)	5 (5=80-100%)	5 (5=80-100%)	5 (5=80-100%)
CC#Cc1cc(C)c(C2C(=O)CC3(CCN(C(=O)C4CCOCC4)CC3)CC2=O)c(C)c1 [Compound A38]	5 (5=80-100%)	5 (5=80-100%)	5 (5=80-100%)	3 (3=40-59%)	5 (5=80-100%)	5 (5=80-100%)	5 (5=80-100%)	5 (5=80-100%)	4 (4=60-79%)	5 (5=80-100%)
CC#Cc1cc(C)c(C2C(=O)CC3(CCN(C(=O)NC(C)=O)CC3)CC2=O)c(C)c1 [Compound A71]	5 (5=80-100%)	5 (5=80-100%)	5 (5=80-100%)	5 (5=80-100%)	5 (5=80-100%)	5 (5=80-100%)	5 (5=80-100%)	5 (5=80-100%)	5 (5=80-100%)	5 (5=80-100%)
CC#Cc1cc(C)c(C2=C(OC(=O)C(C)(C)C)CC3(CCN(C(=O)N(C)C(=O)C(C)(C)C)CC3)CC2=O)c(C)c1 [Compound P54]	5 (5=80-100%)	4 (4=60-79%)	5 (5=80-100%)	4 (4=60-79%)	5 (5=80-100%)	5 (5=80-100%)	5 (5=80-100%)	5 (5=80-100%)	4 (4=60-79%)	5 (5=80-100%)
CC#Cc1cc(C)c(C2C(=O)CC3(CCN(C(=O)CCCOC)CC3)CC2=O)c(C)c1 [Compound A193]	5 (5=80-100%)	5 (5=80-100%)	5 (5=80-100%)	5 (5=80-100%)	5 (5=80-100%)	5 (5=80-100%)	5 (5=80-100%)	5 (5=80-100%)	5 (5=80-100%)	5 (5=80-100%)
CC#Cc1cc(C)c(C2C(=O)CC3(CCN(C(=O)COC)CC3)CC2=O)c(OC)c1 [Compound A75]	5 (5=80-100%)	5 (5=80-100%)	5 (5=80-100%)	5 (5=80-100%)	5 (5=80-100%)	5 (5=80-100%)	5 (5=80-100%)	5 (5=80-100%)	5 (5=80-100%)	5 (5=80-100%)
